The record followed here is patent US20250170136A1, “1,2,4-TRIAZIN-3(2H)-ONE COMPOUNDS FOR THE TREATMENT OF HYPERPROLIFERATIVE DISEASES” (BAYER AKTIENGESELLSCHAFT, priority 2019, published 2025).

Bounds are passed on as bounds.

In one data set the test system is 42-MG-BA cells. As to the kind of experiment: Cell proliferation measurement (CellTiter-Glo, 72 h). Type of data set: cell-based. The following applies: Homo sapiens, anti-proliferation, Brain (Glioblastoma). The protocol: (§1) The antiproliferative activity of the compounds of the general formula (I) was examined in vitro in human cancer cells. […] After 24 h, cells on one plate (0 h plate) were treated with 30 μl/cavity of CTG solution (Promega Cell Titer Glo (catalogue #G755B and G756B)) and incubated at room temperature for 10 min, and luminescence was measured by means of a VICTOR V (Perkin Elmer), in order to determine cell viability on commencement of treatment. The cells on the test plate were treated with the compounds of the general formula (I) as and incubated at 37° C. for 72 h. The compounds were added to the cells by means of an HP D300 digital dispenser in a 10-step 2,5-fold dilution series generally starting at a maximum final drug concentration of 100 nM, or 30 μM in the case of COV318. As control, the cells were treated with vehicle (DMSO at 0.3% final concentration). After 72 h, the cells were treated with 30 μl/cavity of CTG solution (Promega Cell Titer Glo (catalogue #G755B and G756B)) and incubated at room temperature for 10 min, and luminescence was measured by means of a VICTOR V (Perkin Elmer), in order to determine cell viability at the end of treatment. The percentage effect on cell growth and the IC50 derived therefrom were determined for each test substance using the values from the 0 h plate (=maximum inhibition) and the DMSO control (=minimum inhibition). The IC50 values were calculated using a 4-parameter fit.
In general terms: In ATP-based viability assays light output follows the ATP content of the culture.

Another data set has as its system 92.1 cells. The description is as above. The format is cell-based. The following applies: Homo sapiens, anti-proliferation, 92.1, Uveal melanoma. The protocol: as §1
Another data set has as its system COV318 cells. The data set is described as above. Type of data set: cell-based. The following applies: Homo sapiens, anti-proliferation, COV318, Ovarian cancer, maximum concentration 30 μM. The protocol:
as §1

Another data set deals with DBTRG05MG cells. The description is as above. Type of data set: cell-based. The following applies: Homo sapiens, DBTRG-05MG, anti-proliferation, Brain (Glioblastoma). The protocol:
as §1

The next data set concerns DKMG cells. The description is as above. The format is cell-based. The settings on record: Homo sapiens, anti-proliferation, Brain (Glioblastoma). The protocol: as §1
The subject of a further data set is GAMG cells. The data set is described as above. Type of data set: cell-based. The settings on record: Homo sapiens, anti-proliferation, Brain (Glioblastoma). The protocol: as §1
A further data set concerns GB1 cells. The description is as above. Type of data set: cell-based. The settings on record: Homo sapiens, GB-1, anti-proliferation, GB1, Brain (Glioblastoma). The protocol: as §1
A further data set concerns H4 cells. The description is as above. Type of data set: cell-based. The settings on record: Homo sapiens, anti-proliferation, H4, Brain (Astrocytoma). The protocol: as §1
A further data set deals with HeLa cells. Described as above. Type of data set: cell-based. The settings on record: Homo sapiens, anti-proliferation. The protocol: as §1
The test system of another data set is IGR37 cells. Described as above. Type of data set: cell-based. The following applies: Homo sapiens, IGR-37, anti-proliferation, IGR37, Melanoma. The protocol:
as §1

A further data set concerns LN229 cells. The data set is described as above. Type of data set: cell-based. The following applies: Homo sapiens, LN-229, anti-proliferation, LN229, Brain (Glioblastoma). The protocol:
as §1

The test system of another data set is M059J cells. The description is as above. The following applies: Homo sapiens, anti-proliferation, Brain (Glioblastoma). Type of data set: cell-based. The protocol:
as §1

The subject of a further data set is Mel202 cells. Described as above. The format is cell-based. The following applies: Homo sapiens, anti-proliferation, Mel202, Uveal melanoma. The protocol: as §1
A further data set deals with PFSK cells. Described as above. The following applies: Homo sapiens, anti-proliferation, Brain (Primitive neuroectodermal tumor). The format is cell-based. The protocol:
as §1

The subject of the next data set is SK-MEL-3 cells. The description is as above. Type of data set: cell-based. The settings on record: Homo sapiens, SK-MEL3; anti-proliferation, SK-MEL-3, 72 h. The protocol:
as §1

The subject of the next data set is SW1783 cells. The description is as above. The format is cell-based. The settings on record: Homo sapiens, anti-proliferation, SW1783, Brain (Anaplastic astrocytoma). The protocol:
as §1

A further data set relates to T98G cells. Described as above. The format is cell-based. The settings on record: Homo sapiens, anti-proliferation, Brain (Glioblastoma). The protocol: as §1
For a further data set, the system named is U-251MG cells. Described as above. The format is cell-based. The following applies: Homo sapiens, anti-proliferation, Brain (Glioblastoma: Astrocytoma). The protocol: as §1
In a further data set the test system is U118-MG cells. The description is as above. The format is cell-based. The settings on record: Homo sapiens, U-118-MG, anti-proliferation, Brain (Glioblastoma: Astrocytoma). The protocol: as §1
The test system of another data set is YKG1 cells. The data set is described as above. The following applies: Homo sapiens, YKG-1, anti-proliferation, YKG1, Brain (Glioblastoma). The format is cell-based. The protocol:
as §1

Data set [1] in a line: In vivo pharmacokinetics in mice (i.v.). Set-up: species or system female CD-1 mice. The following applies: Mouse/female/CD1, 0.5 mg/kg i.v., PEG400 60% + Water 35% + EtOH 5%. The protocol:
For in vivo pharmacokinetic experiments test compounds were administered to female CD-1 mice, male Wistar rats, Beagle dogs or Cynomolgus monkeys intravenously at doses of 0.3 to 1 mg/kg formulated as solutions using solubilizers such as PEG400 in well-tolerated amounts.
Studies may also have been performed as cassette administrations of up to 3 compounds given together simultaneously in low doses.
For pharmacokinetics after intravenous administration test compounds were given in the female mice and male rat as i.v. bolus and in dogs and monkeys as short term infusion (15 min). Blood samples were taken e.g. at 2 min, 8 min, 15 min, 30 min, 45 min, 1 h, 2 h, 4 h, 6 h, 8 h and 24 h after dosing from the vena jugularis (mouse, rat) or vena saphena (dog, monkey). […] PK parameters were calculated by non-compartmental analysis using a PK calculation software (e.g. Phoenix WinNonlin®, Certara USA, Inc.).
PK parameters derived from concentration-time profiles after i.v.: CLplasma (in L/kg/h): Total plasma clearance of test compound calculated by dose (in μg/kg) divided by area under the concentration-time curve from t=0 h to infinity (extrapolated) (AUCinf in μg*h/L); CLblood: Total blood clearance of test compound: CLplasma*Cp/Cb (in L/kg/h) with Cp/Cb being the ratio of test compound concentrations in plasma and blood. […]

Consider `C[C@@H]1NC(=O)NN=C1c1ccc(-n2ccc(C(F)(F)F)n2)c(C(F)(F)F)c1` [Example 1, (5S)-5-methyl-6-{3-(trifluoromethyl)-4-[3-(trifluoromethyl)-1H-pyrazol-1-yl]phenyl}-4,5-dihydro-1,2,4-triazin-3(2H)-one], for which the IC50 with 42-MG-BA cells was over 0.1 µM; in the data set on 92.1 cells it was 0.0194 µM; in the data set with COV318 cells, 8.93 µM; in the data set on DBTRG05MG cells, 0.0305 µM; with DKMG cells, 0.0166 µM; with GAMG cells, over 0.1 µM. Besides, the IC50 was 0.00896 µM with GB1 cells; 0.0477 µM with H4 cells; 0.0015 µM in the data set on HeLa cells; 0.00401 µM in the data set on IGR37 cells; over 0.1 µM in the data set with LN229 cells; 0.0405 µM in the data set on M059J cells. Besides, the IC50 in the data set with Mel202 cells was 0.0742 µM; in the data set with PFSK cells it was 0.00295 µM; in the data set with SK-MEL-3 cells, 0.004 µM; in the data set on SW1783 cells, over 0.1 µM; in the data set on T98G cells it was over 0.1 µM; with U-251MG cells, over 0.1 µM. In addition, the IC50 with U118-MG cells and in the data set on YKG1 cells was over 0.1 µM throughout. Moreover, the CLblood in [1] turned out to be 3 mL/min/kg.

As usually defined, the IC50 is the concentration at which inhibition is half-maximal. Read a high IC50 as weaker potency in that assay.
